We go through 23 compounds from US20160326142A1, “PYRAZOLE CARBOXAMIDE COMPOUNDS, COMPOSITIONS AND METHODS OF USE” (Genentech, Inc., priority 2012, published 2016).

The test has as its target T1, ITK (Homo sapiens, UniProt Q08881).
T1 construct: purchased Invitrogen PV3875
T1 sequence (Q08881 1-620): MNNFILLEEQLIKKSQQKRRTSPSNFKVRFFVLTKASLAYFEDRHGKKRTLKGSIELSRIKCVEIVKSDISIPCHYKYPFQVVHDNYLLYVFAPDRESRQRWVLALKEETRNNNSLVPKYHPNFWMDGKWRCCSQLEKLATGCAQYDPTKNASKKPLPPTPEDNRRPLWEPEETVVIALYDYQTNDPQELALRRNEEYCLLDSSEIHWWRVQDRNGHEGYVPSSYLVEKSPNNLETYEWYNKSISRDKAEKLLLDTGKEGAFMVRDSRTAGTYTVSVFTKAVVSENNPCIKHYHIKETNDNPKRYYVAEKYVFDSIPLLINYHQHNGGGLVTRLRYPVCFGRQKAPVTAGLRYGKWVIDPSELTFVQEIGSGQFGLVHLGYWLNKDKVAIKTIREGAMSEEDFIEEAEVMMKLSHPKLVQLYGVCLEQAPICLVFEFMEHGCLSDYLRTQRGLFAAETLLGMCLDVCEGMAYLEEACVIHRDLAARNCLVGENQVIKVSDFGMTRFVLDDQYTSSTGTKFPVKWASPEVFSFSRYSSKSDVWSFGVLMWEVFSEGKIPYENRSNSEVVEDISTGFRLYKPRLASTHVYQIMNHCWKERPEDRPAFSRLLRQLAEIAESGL
In words: ITK enzyme assay (Caliper or LCMS peptide phosphorylation). Format: biochemical. The following applies: purified ITK (Invitrogen PV3875), 20 μM ATP, Ki by Morrison's quadratic equation. The protocol:
The ability of purified ITK (Invitrogen PV3875) to catalyze peptide phosphorylation is monitored using a Caliper LabChip 3000 microfluidic unit (Caliper assay) or by liquid chromatography-mass spectrometry (LCMS) using a Waters Acquity system (LCMS assay). […] Reactions are quenched by the addition of 2,2′,2″,2′″-(ethane-1,2-diyldinitrilo)tetraacetic acid (50 mM final). Non-phosphorylated substrate and phosphorylated product peptides are separated and quantified using a Caliper LabChip 3000 instrument. […] Reactions are quenched by the addition of trichloroacetic acid (5% v/v final). Non-phosphorylated substrate and phosphorylated product peptides are separated by ultra performance LC and detected by a coupled triple quadrupole MS device applying multiple reaction monitoring (MRM) for quantification. The area of the MRM-extracted mass signal is used to assess the inhibition by test compounds. Equilibrium dissociation constant (Ki) values for ITK inhibitors are calculated from plots of activity vs. inhibitor concentration using Morrison's quadratic equation that accounts for the potential of tight binding, and by also applying the conversion factor that accounts for competitive inhibition and the concentration of ATP used in the assay relative to its apparent Michaelis constant (Km,app).
`CC1(C)CCc2c(C(=O)Nc3cnn(C(CS(C)(=O)=O)c4cccnc4)c3)n[nH]c2C1` (single isomer, unassigned) [Example 73a, 6,6-dimethyl-N-(1-(2-(methylsulfonyl)-1-(pyridin-3-yl)ethyl)-1H-pyrazol-4-yl)-4,5,6,7-tetrahydro-1H-indazole-3-carboxamide] had a Ki of 0.7 nM. Next, `CN(C)CC(c1ccccc1)n1cc(NC(=O)c2n[nH]c3c2CC2CC2(C)C3)cn1` (single isomer, unassigned) [Example 68b, N-(1-(2-(dimethylamino)-1-phenylethyl)-1H-pyrazol-4-yl)-5a-methyl-1,4,4a,5,5a,6-hexahydrocyclopropa[f]indazole-3-carboxamide]: 4 nM; `CC1(C)CCc2c(C(=O)Nc3cnn(C(c4ccccc4)C4(F)CCNCC4)c3)n[nH]c2C1` (single isomer, unassigned) [Example 44a, N-(1-((4-fluoropiperidin-4-yl)(phenyl)methyl)-1H-pyrazol-4-yl)-6,6-dimethyl-4,5,6,7-tetrahydro-1H-indazole-3-carboxamide]: 6 nM. In the case of `CC12Cc3c(C(=O)Nc4cnn(Cc5ccccc5)c4)n[nH]c3C1C2` (single isomer, unassigned) [Example 151b, N-(1-benzyl-1H-pyrazol-4-yl)-4a-methyl-4,4a,5,5a-tetrahydro-1H-cyclopropa[4,5]cyclopent a[1,2-c]pyrazole-3-carboxamide], the Ki is 12 nM. Compared with the last compound, the Ki is about 2-fold higher. The compound `O=C(Nc1cnn(Cc2ccccc2)c1)c1n[nH]c2c1CCC1(CCCC1=O)C2` (single isomer, unassigned) [Example 105a, N-(1-benzyl-1H-pyrazol-4-yl)-2-oxo-1′,4′,5′,7′-tetrahydrospiro[cyclopentane-1,6′-indazole]-3′-carboxamide] registered a Ki of 3 nM. In turn, `CC1(C)CCc2c(C(=O)Nc3cnn(C(c4ccccc4)C4CN(CCF)C4)c3)n[nH]c2C1` (single isomer, unassigned) [Example 75a, N-(1-((1-(2-fluoroethyl)azetidin-3-yl)(phenyl)methyl)-1H-pyrazol-4-yl)-6,6-dimethyl-4,5,6,7-tetrahydro-1H-indazole-3-carboxamide] yielded a Ki of 2 nM. For `CC1(C)CCc2c(C(=O)Nc3cnn(C(c4nccs4)C4CCS(=O)(=O)CC4)c3)n[nH]c2C1` (single isomer, unassigned) [Example 87a, N-(1-((1,1-dioxidotetrahydro-2H-thiopyran-4-yl)(thiazol-2-yl)methyl)-1H-pyrazol-4-yl)-6,6-dimethyl-4,5,6,7-tetrahydro-1H-indazole-3-carboxamide], the Ki amounted to 0.4 nM. Next, `CC1(C)CCc2c(C(=O)Nc3cnn(C(c4ccccc4)C4CS(=O)(=O)CCN4)c3)n[nH]c2C1` (centres unmarked) [Example 128a, N-(1-((1,1-dioxidothiomorpholin-3-yl)(phenyl)methyl)-1H-pyrazol-4-yl)-6,6-dimethyl-4,5,6,7-tetrahydro-1H-indazole-3-carboxamide]: 42 nM; `CN(C)CCC(c1ccccc1)n1cc(NC(=O)c2n[nH]c3c2CC2CC2(C)C3)cn1` (single isomer, unassigned) [Example 52c, N-(1-(3-(dimethylamino)-1-phenylpropyl)-1H-pyrazol-4-yl)-5a-methyl-1,4,4a,5,5a,6-hexahydrocyclopropa[f]indazole-3-carboxamide]: 2 nM. Next, `CN1CCC(C(c2ccccc2)n2cc(NC(=O)c3n[nH]c4c3CCC(C)(C)C4)cn2)CC1` (single isomer, unassigned) [Example 43a, 6,6-dimethyl-N-(1-((1-methylpiperidin-4-yl)(phenyl)methyl)-1H-pyrazol-4-yl)-4,5,6,7-tetrahydro-1H-indazole-3-carboxamide]: 0.2 nM; `N#Cc1cccc(Cn2cc(NC(=O)c3n[nH]c4c3CCC(c3cn[nH]c3)C4)cn2)c1` (single isomer, unassigned) [Example 1a, N-(1-(3-cyanobenzyl)-1H-pyrazol-4-yl)-6-(1H-pyrazol-4-yl)-4,5,6,7-tetrahydro-1H-indazole-3-carboxamide]: 9.4 nM; `CC1(C)Cc2[nH]nc(C(=O)Nc3cnn(Cc4ccccc4)c3)c2CC1CO` (single isomer, unassigned) [Example 95a, N-(1-benzyl-1H-pyrazol-4-yl)-5-(hydroxymethyl)-6,6-dimethyl-4,5,6,7-tetrahydro-1H-indazole-3-carboxamide]: 5 nM. As for `O=C(Nc1cnn(Cc2ccccc2)c1)c1n[nH]c2c1CCC(CO)C2` (single isomer, unassigned) [Example 14a, N-(1-benzyl-1H-pyrazol-4-yl)-6-(hydroxymethyl)-4,5,6,7-tetrahydro-1H-indazole-3-carboxamide], the figure is 120 nM; as for `CC1(C)CCc2c(C(=O)Nc3cnn(C(c4ccccc4)C4(F)CCNCC4)c3)n[nH]c2C1` (single isomer, unassigned) [Example 44b, N-(1-((4-fluoropiperidin-4-yl)(phenyl)methyl)-1H-pyrazol-4-yl)-6,6-dimethyl-4,5,6,7-tetrahydro-1H-indazole-3-carboxamide], 0.2 nM; as for `CN(C)CCC(c1cccc(C(F)(F)F)c1)n1cc(NC(=O)c2n[nH]c3c2CCC(C)(C)C3)cn1` (single isomer, unassigned) [Example 30b, N-(1-(3-(dimethylamino)-1-(3-(trifluoromethyl)phenyl)propyl)-1H-pyrazol-4-yl)-6,6-dimethyl-4,5,6,7-tetrahydro-1H-indazole-3-carboxamide], 4 nM. In turn, `CC1CC(C(c2ccccc2)n2cc(NC(=O)c3n[nH]c4c3CCC(C)(C)C4)cn2)CCS1(=O)=O` (single isomer, unassigned) [Example 139e, 6,6-dimethyl-N-(1-((2-methyl-1,1-dioxidotetrahydro-2H-thiopyran-4-yl)(phenyl)methyl)-1H-pyrazol-4-yl)-4,5,6,7-tetrahydro-1H-indazole-3-carboxamide] registered a Ki of 1 nM. Next, `CC1(C)CCc2c(C(=O)Nc3cnn(C(c4cccnc4)C4CS(=O)(=O)C4)c3)n[nH]c2C1` (single isomer, unassigned) [Example 117a]: 0.2 nM; `Cn1cc(C(c2ccccc2)n2cc(NC(=O)c3n[nH]c4c3C3CC3CC4)cn2)cn1` (single isomer, unassigned) [Example 35d, N-(1-((1-methyl-1H-pyrazol-4-yl)(phenyl)methyl)-1H-pyrazol-4-yl)-3,4,5,5a,6,6a-hexahydro cyclopropa[e]indazole-1-carboxamide]: 190 nM; `CN(C)CCC(c1ccccc1)n1cc(NC(=O)c2n[nH]c3c2CC2CC2(C)C3)cn1` (single isomer, unassigned) [Example 52b, N-(1-(3-(dimethylamino)-1-phenylpropyl)-1H-pyrazol-4-yl)-5a-methyl-1,4,4a,5,5a,6-hexahydrocyclopropa[f]indazole-3-carboxamide]: 17 nM.

Compound `CC1(C)Cc2[nH]nc(C(=O)Nc3cnn(C(CS(C)(=O)=O)c4cccnc4)c3)c2C1` (single isomer, unassigned) [Example 97a, 5,5-dimethyl-N-(1-(2-(methylsulfonyl)-1-(pyridin-3-yl)ethyl)-1H-pyrazol-4-yl)-1,4,5,6-tetrahydrocyclopenta[c]pyrazole-3-carboxamide] showed a Ki of 2 nM. As for `CCC(c1cnn(CC)c1)n1cc(NC(=O)c2n[nH]c3c2CCC(C)(C)C3)cn1` (single isomer, unassigned) [Example 99b, N-(1-(1-(1-ethyl-1H-pyrazol-4-yl)propyl)-1H-pyrazol-4-yl)-6,6-dimethyl-4,5,6,7-tetrahydro-1H-indazole-3-carboxamide], the figure is 4 nM; as for `CC1(C)CCc2c(C(=O)Nc3cnn(C(c4cccnc4)C4CCS(=O)(=O)CC4)c3)n[nH]c2C1` (single isomer, unassigned) [Example 74b, N-(1-((1,1-dioxidotetrahydro-2H-thiopyran-4-yl)(pyridin-3-yl)methyl)-1H-pyrazol-4-yl)-6,6-dimethyl-4,5,6,7-tetrahydro-1H-indazole-3-carboxamide], 3 nM. Next, `CC1(C)CCc2c(C(=O)Nc3cnn(C(c4ccccc4)C4(F)CNC4)c3)n[nH]c2C1` (single isomer, unassigned) [Example 49a, N-(1-((3-fluoroazetidin-3-yl)(phenyl)methyl)-1H-pyrazol-4-yl)-6,6-dimethyl-4,5,6,7-tetrahydro-1H-indazole-3-carboxamide]: 10 nM.

The term Ki denotes a dissociation constant, usually derived from enzyme kinetics or from competition with a known ligand. High values mean weaker binding, low ones tighter binding.
